Assay results taken from the supplement of paper PMC10307832.

Key:
Assay in all cases: relative viability (nuclei count vs DMSO), 5 days (fraction); higher = more cells survive
XMD14-99 + Phenformin = compound: CN1CCN(CC1)C2=CC(=C(C=C2)NC3=NC(=C(S3)C(=O)C4=C(C=CC=C4Cl)Cl)N)OC [XMD14-99] + N=C(N)NC(=N)NCCc1ccccc1 [Phenformin] (partner 250 µM)
Outline: (§1)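 A single step with final 0.05% Triton X-100, 1% formaldehyde and 1 ug/ml Hoechst fixed the cells and stained nuclei 5 days after treatment. Lung cancer cell lines in 1536-well plates had been treated by pin tool the day after seeding with one drug alone or a fixed anchor-drug dose plus five library-drug doses (not always all listed) in √10 steps, and nuclei were counted on 4× images. Relative viability is the ratio of nuclei in treated wells to nuclei in vehicle wells, taken as the median of duplicate plates.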

AZD1208 + Navitoclax = compound: N[C@@H]1CCCN(c2c(/C=C3\SC(=O)NC3=O)cccc2-c2ccccc2)C1 [AZD1208] + CC1(C)CCC(c2ccc(Cl)cc2)=C(CN2CCN(c3ccc(C(=O)NS(=O)(=O)c4ccc(N[C@H](CCN5CCOCC5)CSc5ccccc5)c(S(=O)(=O)C(F)(F)F)c4)cc3)CC2)C1 [Navitoclax] (partner 0.5 µM)
Outline: as §1

XMD14-99 + Trametinib = compound: CN1CCN(CC1)C2=CC(=C(C=C2)NC3=NC(=C(S3)C(=O)C4=C(C=CC=C4Cl)Cl)N)OC [XMD14-99] + CC(=O)Nc1cccc(-n2c(=O)n(C3CC3)c(=O)c3c(Nc4ccc(I)cc4F)n(C)c(=O)c(C)c32)c1 [Trametinib] (partner 0.02 µM)
Outline: as §1

XMD14-99 + Decitabine = compound: CN1CCN(CC1)C2=CC(=C(C=C2)NC3=NC(=C(S3)C(=O)C4=C(C=CC=C4Cl)Cl)N)OC [XMD14-99] + Nc1ncn([C@H]2C[C@H](O)[C@@H](CO)O2)c(=O)n1 [Decitabine] (partner 2 µM)
Outline: as §1

For NCI-H2009, the relative viability (XMD14-99 + Phenformin; first compound 0.08 µM) was 0.482, the relative viability (XMD14-99 + Phenformin; first compound 0.8 µM) was 0.442 and the relative viability (XMD14-99 + Phenformin; first compound 2.53 µM) was 0.331. The relative viability (XMD14-99 + Phenformin; first compound 8 µM) was 0.251, the relative viability (AZD1208 + Navitoclax; first compound 0.08 µM) was 1.2 and the relative viability (AZD1208 + Navitoclax; first compound 0.253 µM) was 1.14. The relative viability (AZD1208 + Navitoclax; first compound 0.8 µM) was 1.12, the relative viability (AZD1208 + Navitoclax; first compound 2.53 µM) was 1.21 and the relative viability (AZD1208 + Navitoclax; first compound 8 µM) was 1.15. For the same cell line, the relative viability (XMD14-99 + Trametinib; first compound 0.08 µM) was 0.258, the relative viability (XMD14-99 + Trametinib; first compound 0.8 µM) was 0.317 and the relative viability (XMD14-99 + Trametinib; first compound 2.53 µM) was 0.254. It also gave a relative viability (XMD14-99 + Trametinib; first compound 8 µM) of 0.185, a relative viability (XMD14-99 + Decitabine; first compound 0.08 µM) of 0.342 and a relative viability (XMD14-99 + Decitabine; first compound 0.8 µM) of 0.343. For the same cell line, the relative viability (XMD14-99 + Decitabine; first compound 2.53 µM) was 0.378 and the relative viability (XMD14-99 + Decitabine; first compound 8 µM) was 0.371.
NCI-H2342 gave a relative viability (XMD14-99 + Phenformin; first compound 0.08 µM) of 0.675, a relative viability (XMD14-99 + Phenformin; first compound 0.8 µM) of 0.782 and a relative viability (XMD14-99 + Phenformin; first compound 2.53 µM) of 0.68. For the same cell line, the relative viability (XMD14-99 + Phenformin; first compound 8 µM) was 0.513, the relative viability (XMD14-99 + Trametinib; first compound 0.08 µM) was 0.885 and the relative viability (XMD14-99 + Trametinib; first compound 0.8 µM) was 0.882. It also gave a relative viability (XMD14-99 + Trametinib; first compound 2.53 µM) of 0.949, a relative viability (XMD14-99 + Trametinib; first compound 8 µM) of 0.848 and a relative viability (XMD14-99 + Decitabine; first compound 0.08 µM) of 0.724. For the same cell line, the relative viability (XMD14-99 + Decitabine; first compound 0.8 µM) was 0.739, the relative viability (XMD14-99 + Decitabine; first compound 2.53 µM) was 0.765 and the relative viability (XMD14-99 + Decitabine; first compound 8 µM) was 0.638.
With NCI-H661 the relative viability (XMD14-99 + Phenformin; first compound 0.08 µM) was 0.292, the relative viability (XMD14-99 + Phenformin; first compound 0.8 µM) was 0.272 and the relative viability (XMD14-99 + Phenformin; first compound 2.53 µM) was 0.263. The relative viability (XMD14-99 + Phenformin; first compound 8 µM) was 0.296, the relative viability (XMD14-99 + Trametinib; first compound 0.08 µM) was 0.573 and the relative viability (XMD14-99 + Trametinib; first compound 0.8 µM) was 0.598. For the same cell line, the relative viability (XMD14-99 + Trametinib; first compound 2.53 µM) was 0.481, the relative viability (XMD14-99 + Trametinib; first compound 8 µM) was 0.516 and the relative viability (XMD14-99 + Decitabine; first compound 0.08 µM) was 0.562. For the same cell line, the relative viability (XMD14-99 + Decitabine; first compound 0.8 µM) was 0.55, the relative viability (XMD14-99 + Decitabine; first compound 2.53 µM) was 0.502 and the relative viability (XMD14-99 + Decitabine; first compound 8 µM) was 0.44.
NCI-H650 was tested, and the relative viability (XMD14-99 + Phenformin; first compound 0.08 µM) was 0.497, the relative viability (XMD14-99 + Phenformin; first compound 0.8 µM) was 0.465 and the relative viability (XMD14-99 + Phenformin; first compound 2.53 µM) was 0.423. For the same cell line, the relative viability (XMD14-99 + Phenformin; first compound 8 µM) was 0.364, the relative viability (XMD14-99 + Trametinib; first compound 0.08 µM) was 0.861 and the relative viability (XMD14-99 + Trametinib; first compound 0.8 µM) was 0.932. The relative viability (XMD14-99 + Trametinib; first compound 2.53 µM) was 1.05, the relative viability (XMD14-99 + Trametinib; first compound 8 µM) was 0.907 and the relative viability (XMD14-99 + Decitabine; first compound 0.08 µM) was 0.272. The relative viability (XMD14-99 + Decitabine; first compound 0.8 µM) was 0.318, the relative viability (XMD14-99 + Decitabine; first compound 2.53 µM) was 0.292 and the relative viability (XMD14-99 + Decitabine; first compound 8 µM) was 0.319.
Work on A549 yielded a relative viability (XMD14-99 + Phenformin; first compound 0.08 µM) of 0.153, a relative viability (XMD14-99 + Phenformin; first compound 0.8 µM) of 0.16 and a relative viability (XMD14-99 + Phenformin; first compound 2.53 µM) of 0.0976. It also gave a relative viability (XMD14-99 + Phenformin; first compound 8 µM) of 0.133, a relative viability (AZD1208 + Navitoclax; first compound 0.08 µM) of 1.24 and a relative viability (AZD1208 + Navitoclax; first compound 0.253 µM) of 1.16. The relative viability (AZD1208 + Navitoclax; first compound 0.8 µM) was 1.12, the relative viability (AZD1208 + Navitoclax; first compound 2.53 µM) was 1.18 and the relative viability (AZD1208 + Navitoclax; first compound 8 µM) was 1.1. For the same cell line, the relative viability (XMD14-99 + Decitabine; first compound 0.08 µM) was 0.284, the relative viability (XMD14-99 + Decitabine; first compound 0.8 µM) was 0.271 and the relative viability (XMD14-99 + Decitabine; first compound 2.53 µM) was 0.203. For the same cell line, the relative viability (XMD14-99 + Decitabine; first compound 8 µM) was 0.229.
NCI-H358 gave a relative viability (XMD14-99 + Phenformin; first compound 0.08 µM) of 0.306, a relative viability (XMD14-99 + Phenformin; first compound 0.8 µM) of 0.354 and a relative viability (XMD14-99 + Phenformin; first compound 2.53 µM) of 0.267. The relative viability (XMD14-99 + Phenformin; first compound 8 µM) was 0.217, the relative viability (XMD14-99 + Trametinib; first compound 0.08 µM) was 0.118 and the relative viability (XMD14-99 + Trametinib; first compound 0.8 µM) was 0.179. The relative viability (XMD14-99 + Trametinib; first compound 2.53 µM) was 0.134, the relative viability (XMD14-99 + Trametinib; first compound 8 µM) was 0.127 and the relative viability (XMD14-99 + Decitabine; first compound 0.08 µM) was 0.231. The relative viability (XMD14-99 + Decitabine; first compound 0.8 µM) was 0.187, the relative viability (XMD14-99 + Decitabine; first compound 2.53 µM) was 0.203 and the relative viability (XMD14-99 + Decitabine; first compound 8 µM) was 0.174.
For NCI-H1563, the relative viability (XMD14-99 + Phenformin; first compound 0.08 µM) was 0.606, the relative viability (XMD14-99 + Phenformin; first compound 0.8 µM) was 0.63 and the relative viability (XMD14-99 + Phenformin; first compound 2.53 µM) was 0.6. It also gave a relative viability (XMD14-99 + Phenformin; first compound 8 µM) of 0.585.
With NCI-H2228 the relative viability (XMD14-99 + Phenformin; first compound 0.08 µM) was 0.382, the relative viability (XMD14-99 + Phenformin; first compound 0.8 µM) was 0.344 and the relative viability (XMD14-99 + Phenformin; first compound 2.53 µM) was 0.168. The relative viability (XMD14-99 + Phenformin; first compound 8 µM) was 0.152, the relative viability (AZD1208 + Navitoclax; first compound 0.08 µM) was 0.782 and the relative viability (AZD1208 + Navitoclax; first compound 0.253 µM) was 0.766. It also gave a relative viability (AZD1208 + Navitoclax; first compound 0.8 µM) of 0.713, a relative viability (AZD1208 + Navitoclax; first compound 8 µM) of 0.51 and a relative viability (XMD14-99 + Trametinib; first compound 0.08 µM) of 0.612. It also gave a relative viability (XMD14-99 + Trametinib; first compound 0.8 µM) of 0.534, a relative viability (XMD14-99 + Trametinib; first compound 2.53 µM) of 0.431 and a relative viability (XMD14-99 + Trametinib; first compound 8 µM) of 0.209.
In the case of SW 900, the relative viability (XMD14-99 + Phenformin; first compound 0.08 µM) is reported as 0.6, the relative viability (XMD14-99 + Phenformin; first compound 0.8 µM) is reported as 0.685 and the relative viability (XMD14-99 + Phenformin; first compound 2.53 µM) is reported as 0.555. The relative viability (XMD14-99 + Phenformin; first compound 8 µM) was 0.402, the relative viability (XMD14-99 + Trametinib; first compound 0.08 µM) was 0.779 and the relative viability (XMD14-99 + Trametinib; first compound 0.8 µM) was 0.876. It also gave a relative viability (XMD14-99 + Trametinib; first compound 2.53 µM) of 0.752, a relative viability (XMD14-99 + Trametinib; first compound 8 µM) of 0.756 and a relative viability (XMD14-99 + Decitabine; first compound 0.08 µM) of 0.413. The relative viability (XMD14-99 + Decitabine; first compound 0.8 µM) was 0.443, the relative viability (XMD14-99 + Decitabine; first compound 2.53 µM) was 0.386 and the relative viability (XMD14-99 + Decitabine; first compound 8 µM) was 0.419.
IA-LM gave a relative viability (AZD1208 + Navitoclax; first compound 0.08 µM) of 0.812, a relative viability (AZD1208 + Navitoclax; first compound 0.253 µM) of 0.865 and a relative viability (AZD1208 + Navitoclax; first compound 0.8 µM) of 0.651. The relative viability (AZD1208 + Navitoclax; first compound 2.53 µM) was 0.621 and the relative viability (AZD1208 + Navitoclax; first compound 8 µM) was 0.794.
For NCI-H1703, the relative viability (AZD1208 + Navitoclax; first compound 0.08 µM) was 0.98, the relative viability (AZD1208 + Navitoclax; first compound 0.253 µM) was 1.19 and the relative viability (AZD1208 + Navitoclax; first compound 0.8 µM) was 0.88. It also gave a relative viability (AZD1208 + Navitoclax; first compound 2.53 µM) of 0.878 and a relative viability (AZD1208 + Navitoclax; first compound 8 µM) of 0.783.
LCLC-103H was tested, and the relative viability (XMD14-99 + Phenformin; first compound 0.08 µM) was 0.294, the relative viability (XMD14-99 + Phenformin; first compound 0.8 µM) was 0.348 and the relative viability (XMD14-99 + Phenformin; first compound 2.53 µM) was 0.318. The relative viability (XMD14-99 + Phenformin; first compound 8 µM) was 0.298, the relative viability (XMD14-99 + Trametinib; first compound 0.08 µM) was 0.702 and the relative viability (XMD14-99 + Trametinib; first compound 0.8 µM) was 0.716. The relative viability (XMD14-99 + Trametinib; first compound 2.53 µM) was 0.719, the relative viability (XMD14-99 + Trametinib; first compound 8 µM) was 0.665 and the relative viability (XMD14-99 + Decitabine; first compound 0.08 µM) was 0.715. For the same cell line, the relative viability (XMD14-99 + Decitabine; first compound 0.8 µM) was 0.739, the relative viability (XMD14-99 + Decitabine; first compound 2.53 µM) was 0.721 and the relative viability (XMD14-99 + Decitabine; first compound 8 µM) was 0.682.
With NCI-H1648 the relative viability (XMD14-99 + Trametinib; first compound 0.08 µM) was 0.613, the relative viability (XMD14-99 + Trametinib; first compound 0.8 µM) was 0.46 and the relative viability (XMD14-99 + Trametinib; first compound 2.53 µM) was 0.459. The relative viability (XMD14-99 + Trametinib; first compound 8 µM) was 0.466, the relative viability (XMD14-99 + Decitabine; first compound 0.08 µM) was 0.47 and the relative viability (XMD14-99 + Decitabine; first compound 0.8 µM) was 0.501. It also gave a relative viability (XMD14-99 + Decitabine; first compound 2.53 µM) of 0.479 and a relative viability (XMD14-99 + Decitabine; first compound 8 µM) of 0.455.
